According to patent US10265329B2, “Altering steroid metabolism for treatment of steroid-dependent disease” (THE CLEVELAND CLINIC FOUNDATION, priority 2015, dated 2019):
Values belong to the molecule of their own block, whether it stands above or below them.

Key:
SRD5A1 = biological target: T1, SRD5A1 (Homo sapiens, UniProt P18405); settings: LAPC4 cells
T1 sequence (P18405 1-259): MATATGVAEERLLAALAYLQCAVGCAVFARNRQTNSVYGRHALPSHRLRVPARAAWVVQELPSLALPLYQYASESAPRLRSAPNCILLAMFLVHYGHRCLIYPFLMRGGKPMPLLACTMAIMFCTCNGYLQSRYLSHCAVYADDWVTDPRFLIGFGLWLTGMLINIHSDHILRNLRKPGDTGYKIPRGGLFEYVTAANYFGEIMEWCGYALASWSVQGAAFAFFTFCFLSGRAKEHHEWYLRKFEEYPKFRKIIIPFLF
Procedure: Cell Line Metabolism: 0.2 million/ml cells were seeded and incubated in 12-well plates for ˜24 h before incubation with the indicated drugs or a mixture of [^3H]-labeled (˜1,000,000 cpm/well; PerkinElmer, Waltham, Mass.) and non-radioactive androgens (final concentration, 100 nM) at 37° C. Collected medium was treated with β-glucuronidase (Helix pomatia; Sigma-Aldrich), extracted with ethyl acetate:isooctane (1:1), and concentrated under nitrogen gas as described.
Dried samples were reconstituted in 50% methanol and separated on Kinetex 100×2.1 mm, 2.6 μm particle size C18 reverse-phase column (Phenomenex, Torrance, Calif.) using a methanol/water gradient at 30° C. The column effluent was analyzed using a 254 nm UV-visible detector or β-RAM model 3 in-line radioactivity detector (IN/US Systems, Inc.) using Liquiscint scintillation cocktail (National Diagnostics, Atlanta, Ga.). All HPLC studies were conducted in triplicate and repeated at least 3 times in independent experiments. Results are shown as mean±SD.

[1] = Phase II clinical trial NCT01393730: serum Abi metabolites before and after dutasteride; assay type: in vivo, human
Procedure: Twelve patients with CRPC undergoing treatment with Abi acetate at Cleveland Clinic were consented under an Institutional Review Board—approved protocol (Case 7813). Blood was collected using Vacutainer Plus serum blood collection tubes (#BD367814, Becton Dickenson, Franklin Lakes, N.J.), between 1 and 16 hours after the 1000 mg daily dose of Abi acetate was administered, and allowed to clot. Tubes were centrifuged at 2500 RPM or 1430×g for 10 minutes. Serum aliquots were frozen at −80° C. until processing. To study the effect of dutasteride on Abi metabolism, serum samples were collected from patients treated on a phase II clinical trial at Dana-Farber Cancer Institute (NCT01393730). Each patient received Abi acetate (1,000 mg daily) plus prednisone (5 mg daily) for 2 cycles (8 weeks) and then additional treatment with dutasteride ([…]) was initiated. Samples were collected on treatment with Abi alone and after addition of dutasteride (start of cycles 3, 4 and 7). Seventeen patients treated at this institution on this clinical trial had blood available from all 3 time points. One patient had Abi concentrations that were under the limit of detection and was later determine to have stopped treatment because of adverse effects and was therefore not included in the analysis. Drug metabolites and internal standard (d4-abiraterone, Toronto Research Chemicals Inc, Ontario Canada) were extracted from 100 μL of patient serum with methyl tert-butyl ether (Sigma Aldrich, St. Louis, Mo.), evaporated under a stream of nitrogen gas and reconstituted in methanol:water (50:50) prior to mass spectrometry analysis. Standard curves were generated using human serum spiked with known concentrations of each metabolite to enable determination of unknown concentrations in patient samples
Samples were analyzed on a ultra high-performance liquid chromatography station (Shimadzu, Kyoto, Japan) with a DGU-20A3R degasser, 2 LC-30AD pumps, a SIL-30AC autosampler, a CTO-10A column oven and a CBM-20A system controller in tandem with a QTRAP 5500 mass spectrometer (AB Sciex, Framingham, Mass.). Drug metabolites were ionized using electrospray ionization in positive ion mode. Multiple reaction monitoring was used to follow mass transitions for Abi, IS, and the metabolites (Table 1). Due to the similarity in structure and mass transitions for the metabolites it was necessary to separate them with chromatography. Separation of drug metabolites was achieved using a mobile phase consisting of LC-MS grade (Fisher) methanol: acetonitrile: water:formic acid (39:26:34:1) at a flow rate of 0.2 ml/min., and C18 analytical column; Zorbax Eclipse plus 150×2.1 mm, 3.5 μm (Agilent, Santa Clara, Calif.).

LNCaP cells = assay: Cell proliferation assay, DHT-stimulated growth; assay type: cell-based, human; settings: DHT 0.5 nM, 2, 4 and 6 days
Procedure: LNCaP cells (0.1 million/mL) were seeded in 96-well plates and cultured in phenol red free RPMI-1640 mediums plus 10% charcoal stripped FBS with androgens and/or drugs. Medium was changed every other day. After 2, 4 or 6 days, cells were collected and lysed after treatment. Growth was then determined based on DNA content as detected by Hoechst stain and a Wallac Victor2 1420 Multilabel counter (Perkin Elmer). Two-tailed student's t-test was used to determine significance.

SRD5A = biological target: T2, SRD5A (Homo sapiens, UniProt P18405); assay: Conversion of [3H]-AD to 5α-reduced androgens in LAPC4 cells; assay type: cell-based; settings: up to 100 μM; LAPC4 cells
T2 construct: endogenous in cells; host or cells: LAPC4
T2 sequence (P18405 1-259): T1 sequence (P18405 1-259)
Procedure: (§1) Cell Line Metabolism: Cells were seeded and incubated in 12-well plates with 0.2 million cells/well for ˜24 h and then incubated with a mixture of radioactive ([^3H]-labeled) and non-radioactive androgens (final concentration, 100 nM; ˜1,000,000 cpm/well; PerkinElmer, Waltham, Mass.) at 37° C. Aliquots of medium were collected at the indicated times. Collected medium was treated with 1,000 units of β-glucuronidase (Helix pomatia; Sigma-Aldrich) at 65° C. for 2 h, extracted with 860 μL ethyl acetate:isooctane (1:1), and concentrated under nitrogen gas. Xenograft Metabolism: 10^7 LNCaP or VCaP cells were injected subcutaneously with Matrigel into surgically orchiectomized NSG mice that were implanted with 5 mg 90-day sustained-release DHEA pellets (Innovative Research of American, Sarasota, Fla.). Xenografts were harvested when they reached 1000 mm^3, minced, and cultured in DMEM with 10% FBS at 37° C. with mixture of radioactive ([^3H]-labeled) and non-radioactive androgens, or Abi, when they reached 1000 mm^3. Each xenograft was analyzed in triplicate in at least three independent experiments. Aliquots of medium were collected at the indicated times. Collected medium was treated with 1,000 units of β-glucuronidase at 65° C. for 2 h, extracted with 860 μL ethyl acetate:isooctane (1:1), and concentrated under nitrogen gas.
Dried samples were reconstituted in 50% methanol and injected into the HPLC. Steroids and drug metabolites were separated on Kinetex 100×2.1 mm, 2.6 μm particle size C18 reverse-phase column (Phenomenex, Torrance, Calif.) using a methanol/water gradient at 30° C. […] Alternatively, dried samples were applied to plastic-backed silica gel plates and separated by thin-layer chromatography (TLC) using a mobile phase of 3:1 chloroform:ethyl acetate, followed by exposure of the plates to a phosphorimager screen and quantitated with a Storm model 860 phosphorimager (Applied Biosystems, Foster City, Calif.). […] Results are shown as mean±SD.
Collected medium was treated with β-glucuronidase (Helix pomatia; Sigma-Aldrich), extracted with ethyl acetate:isooctane (1:1), and concentrated under nitrogen gas as described. Li et al., 523, 347-351 (2015).
Dried samples were reconstituted in 50% methanol and separated on Kinetex 100×2.1 mm, 2.6 μm particle size C18 reverse-phase column (Phenomenex, Torrance, Calif.) using a methanol/water gradient at 30° C. […] Results are shown as mean±SD.

[2] = patients; wide interpatient variability; cited from earlier work
CYP17A1 = biological target: T3, CYP17A1 (Homo sapiens, UniProt P05093); assay: Conversion of [3H]-pregnenolone to DHEA in 293 cells expressing CYP17A1; assay type: cell-based; settings: 1 nM drug; 3 h incubation; vehicle 70.1%
T3 construct: expressed in transfected cells
T3 sequence (P05093 1-508): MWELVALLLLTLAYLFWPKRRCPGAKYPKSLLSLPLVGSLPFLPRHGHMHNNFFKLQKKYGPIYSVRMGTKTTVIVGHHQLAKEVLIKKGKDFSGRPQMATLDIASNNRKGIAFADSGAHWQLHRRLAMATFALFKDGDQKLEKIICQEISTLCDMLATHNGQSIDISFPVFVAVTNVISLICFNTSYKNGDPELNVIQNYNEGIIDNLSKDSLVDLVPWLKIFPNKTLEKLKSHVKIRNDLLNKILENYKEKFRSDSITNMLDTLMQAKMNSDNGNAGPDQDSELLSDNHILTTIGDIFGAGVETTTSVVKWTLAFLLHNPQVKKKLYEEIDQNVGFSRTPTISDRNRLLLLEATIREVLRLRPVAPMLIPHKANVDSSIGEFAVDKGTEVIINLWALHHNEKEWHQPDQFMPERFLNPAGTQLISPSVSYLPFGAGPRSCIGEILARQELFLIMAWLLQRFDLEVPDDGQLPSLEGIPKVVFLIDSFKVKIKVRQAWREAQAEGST
Description: LNCaP and VCaP cells were purchased from the American Type Culture Collection (Manassas, Va.) and maintained in RPMI-1640 with 10% FBS. LAPC4 cells were kindly provided by Dr. Charles Sawyers (Memorial Sloan Kettering Cancer Center, New York, N.Y.) and grown in Iscove's Modified Dulbecco's Medium with 10% FBS. C4-2 cells were kindly provided by Dr. Leland Chung (Cedars-Sinai Medical Center, Los Angeles, Calif.) and maintained in RPMI-1640 with 10% FBS. All experiments done with LNCaP and VCaP were done in plates coated with poly-DL-ornithine (Sigma-Aldrich, St. Louis, Mo.). A 293 cell line stably expressing human CYP17A1 was generated by transfection with plasmid pcDNA3-CYP17 (a generous gift of Dr. Walter Miller, University of California, San Francisco) and selection with G418. Cell lines was authenticated by DDC Medical (Fairfield, Ohio) and determined to be […] mycoplasma free with primers.
as §1, with “Collected medium was treated with 1,000 units of β-glucuronidase at 65° C. for 2 h, extracted with 860 μL ethyl acetate:isooctane (1:1), and concentrated under nitrogen gas.” left out
Dried samples were reconstituted in 50% methanol and injected into the HPLC. […] Alternatively, dried samples were applied to plastic-backed silica gel plates and separated by thin-layer chromatography (TLC) using a mobile phase of 3:1 chloroform:ethyl acetate, followed by exposure of the plates to a phosphorimager screen and quantitated with a Storm model 860 phosphorimager (Applied Biosystems, Foster City, Calif.). […]
Cell lines, drugs and constructs. […] Cell lines were authenticated by DDC Medical (Fairfield, Ohio) and determined to be mycoplasma free with primers. […]

SMILES: C[C@]12C=CC(=O)N[C@@H]1CC[C@@H]1[C@@H]2CC[C@]2(C)[C@@H](C(=O)Nc3cc(C(F)(F)F)ccc3C(F)(F)F)CC[C@@H]12 [dutasteride]
block of conversion of D4A to 5α-Abi and 3α-OH-5α-Abi (SRD5A1): blocks conversion

SMILES: C[C@]12CC[C@H](O)C[C@@H]1CC[C@@H]1[C@@H]2CC[C@]2(C)C(c3cccnc3)=CC[C@@H]12 [Compound 3β-OH-5α-Abi, 17-(3-pyridyl)-5α-androsta-16-ene-3β-ol]
decline in mean serum concentration after the addition of dutasteride ([1]; cycle 3 vs. cycle 4): 73%

Continued, in another order:

block of conversion of D4A to 5α-Abi and 3α-OH-5α-Abi (SRD5A1): blocks conversion
SMILES: CN1C(=O)CC[C@@H]2c3ccc(Cl)cc3CC[C@H]21 [LY191704]

effect on conversion from AD to 5α-reduced androgens (SRD5A): no detectable effect
SMILES: CNC(=O)c1ccc(N2C(=S)N(c3ccc(C#N)c(C(F)(F)F)c3)C(=O)C2(C)C)cc1F [enzalutamide, reference compound]
effect on DHT-stimulated cell growth (LNCaP cells): more potent than Abi

mean serum concentration, cycle 3 ([1]; Abi acetate 1000 mg daily plus prednisone alone, 16 patients): 191.2 nM | mean serum concentration, cycle 4 ([1]; after addition of dutasteride 3.5 mg once daily, 16 patients): 372.4 nM | % conversion to DHEA (CYP17A1): 2.6%
SMILES: C[C@]12CC[C@H](O)CC1=CC[C@@H]1[C@@H]2CC[C@]2(C)C(c3cccnc3)=CC[C@@H]12 [Abi, Abiraterone, reference compound]
Cmax [2]: ~1000 nM
